Publication PMC5007552, “The hVps34‐SGK3 pathway alleviates sustained PI3K/Akt inhibition by stimulating mTORC1 and tumour growth” (The EMBO Journal, 2016)
“And” between values parts separate entries of the source, which are not always exact repeats. Identical values can stand only once.

System: ZR-75-1 cells
Assay: NanoString human kinome mRNA quantification
Format: cell-based
Description: Human mRNAs were hybridised to NanoString human kinome and control code sets, then subjected to quantification using NanoString software. […] To permit data compaction, and simple kinome‐wide comparisons, the fold changes are log2 transformed. […] Cell pellets were resuspended at a concentration of ~6,500 cells/μl in RLT buffer (Qiagen). […] For total copy numbers, triplicate normalised count values were averaged, and to calculate fold induction, means were divided by triplicate mean values from matched DMSO controls. P‐values were calculated using unpaired t‐test (GraphPad Prism software) by employing treated and control count data for each kinase mRNA.

Q: How did the “BRD4 Normalised counts” value (BRD4 mRNA, single replicates) turn out when NC1(c2ccc(-c3nc4ccn5c(=O)[nH]nc5c4cc3-c3ccccc3)cc2)CCC1 [MK-2206] was run?
A: 2584.75 and 2591.35 and 2590.29

Q: What about the “BRDT Average normalised counts” value (BRDT mRNA, average of 3 replicates) of the same molecule?
A: 1

Q: What about the “BRDT Normalised counts” value (BRDT mRNA, single replicates) of the same molecule?
A: 1

Q: And the “BRSK1 Average normalised counts” value (BRSK1 mRNA, average of 3 replicates)?
A: 145.583

Q: And the “BRSK1 Normalised counts” value (BRSK1 mRNA, single replicates)?
A: 127.82 and 151.05 and 157.88

Q: What about the “BRSK2 Average normalised counts” value (BRSK2 mRNA, average of 3 replicates) of the same molecule?
A: 4.607

Q: And the “BRSK2 Normalised counts” value (BRSK2 mRNA, single replicates)?
A: 2.39 and 5.97 and 5.46

Q: What about the “BTK Average normalised counts” value (BTK mRNA, average of 3 replicates) of the same molecule?
A: 1

Q: And the “BTK Normalised counts” value (BTK mRNA, single replicates)?
A: 1

Q: What about the “BUB1B Average normalised counts” value (BUB1B mRNA, average of 3 replicates) of the same molecule?
A: 1729.87

Q: What about the “BUB1B Normalised counts” value (BUB1B mRNA, single replicates) of the same molecule?
A: 1717.6 and 1711.31 and 1760.7

Q: What about the “BUB1 Average normalised counts” value (BUB1 mRNA, average of 3 replicates) of the same molecule?
A: 648.95

Q: And the “BUB1 Normalised counts” value (BUB1 mRNA, single replicates)?
A: 644.12 and 665.35 and 637.38

Q: What about the “C9orf96 Average normalised counts” value (C9orf96 mRNA, average of 3 replicates) of the same molecule?
A: 2.773

Q: What about the “C9orf96 Normalised counts” value (C9orf96 mRNA, single replicates) of the same molecule?
A: 1 and 4.24 and 3.08

Q: What about the “C21orf7 Average normalised counts” value (C21orf7 mRNA, average of 3 replicates) of the same molecule?
A: 1

Q: What about the “C21orf7 Normalised counts” value (C21orf7 mRNA, single replicates) of the same molecule?
A: 1

Q: And the “CAMK1D average normalised counts” value (CAMK1D mRNA)?
A: 339.763

Q: What about the “CAMK1D normalised counts (replicates)” value (CAMK1D mRNA) of the same molecule?
A: 364.15 and 317.85 and 337.29

Q: What about the “CAMK1G average normalised counts” value (CAMK1G mRNA) of the same molecule?
A: 1

Q: And the “CAMK1G normalised counts (replicates)” value (CAMK1G mRNA)?
A: 1

Q: What about the “CAMK1 average normalised counts” value (CAMK1 mRNA) of the same molecule?
A: 4.053

Q: And the “CAMK1 normalised counts (replicates)” value (CAMK1 mRNA)?
A: 4.2 and 2.5 and 5.46

Q: And the “CAMK2A average normalised counts” value (CAMK2A mRNA)?
A: 1

Q: What about the “CAMK2A normalised counts (replicates)” value (CAMK2A mRNA) of the same molecule?
A: 1

Q: What about the “CAMK2B average normalised counts” value (CAMK2B mRNA) of the same molecule?
A: 228.397

Q: What about the “CAMK2B normalised counts (replicates)” value (CAMK2B mRNA) of the same molecule?
A: 211.86

Q: And the “CAMK2D average normalised counts” value (CAMK2D mRNA)?
A: 829.067

Q: What about the “CAMK2D normalised counts (replicates)” value (CAMK2D mRNA) of the same molecule?
A: 815.91 and 824.33 and 846.96

Q: What about the “CAMK2G average normalised counts” value (CAMK2G mRNA) of the same molecule?
A: 2774.38

Q: What about the “CAMK2G normalised counts (replicates)” value (CAMK2G mRNA) of the same molecule?
A: 2695.65 and 2845.89 and 2781.61

Q: And the “CAMK4 average normalised counts” value (CAMK4 mRNA)?
A: 3.433

Q: And the “CAMK4 normalised counts (replicates)” value (CAMK4 mRNA)?
A: 4.2 and 5.1 and 1

Q: What about the “CAMKK1 average normalised counts” value (CAMKK1 mRNA) of the same molecule?
A: 313.75

Q: And the “CAMKK1 normalised counts (replicates)” value (CAMKK1 mRNA)?
A: 326.89 and 314.38 and 299.98

Q: And the “CAMKK2 average normalised counts” value (CAMKK2 mRNA)?
A: 584.02

Q: What about the “CAMKK2 normalised counts (replicates)” value (CAMKK2 mRNA) of the same molecule?
A: 568.67 and 607.14 and 576.25

Q: What about the “CAMKV average normalised counts” value (CAMKV mRNA) of the same molecule?
A: 1.5

Q: And the “CAMKV normalised counts (replicates)” value (CAMKV mRNA)?
A: 1 (2×) and 2.5

Q: What about the “CASK average normalised counts” value (CASK mRNA) of the same molecule?
A: 727.217

Q: And the “CASK normalised counts (replicates)” value (CASK mRNA)?
A: 714.11 and 680.12 and 787.42

Q: And the “CCL2 average normalised counts” value (CCL2 mRNA)?
A: 6.427

Q: What about the “CCL2 normalised counts (replicates)” value (CCL2 mRNA) of the same molecule?
A: 9.66 and 3.37 and 6.25

Q: What about the “CDC7 average normalised counts” value (CDC7 mRNA) of the same molecule?
A: 336.743

Q: And the “CDC7 normalised counts (replicates)” value (CDC7 mRNA)?
A: 335.98 and 336.96 and 337.29

Q: And the “CDC42BPA average normalised counts” value (CDC42BPA mRNA)?
A: 675.63

Q: What about the “CDC42BPA normalised counts (replicates)” value (CDC42BPA mRNA) of the same molecule?
A: 678.66 and 677.51 and 670.72

Q: What about the “CDC42BPB average normalised counts” value (CDC42BPB mRNA) of the same molecule?
A: 1143.02

Q: And the “CDC42BPB normalised counts (replicates)” value (CDC42BPB mRNA)?
A: 1097.69 and 1178.77 and 1152.6

Q: And the “CDC42BPG average normalised counts” value (CDC42BPG mRNA)?
A: 104.73

Q: What about the “CDC42BPG normalised counts (replicates)” value (CDC42BPG mRNA) of the same molecule?
A: 110.55 and 108.48 and 95.16

Q: And the “CDK1 average normalised counts” value (CDK1 mRNA)?
A: 3517.89

Q: What about the “CDK1 normalised counts (replicates)” value (CDK1 mRNA) of the same molecule?
A: 3504.63 and 3450.53 and 3598.5

Q: What about the “CDK2 average normalised counts” value (CDK2 mRNA) of the same molecule?
A: 369.187

Q: What about the “CDK2 normalised counts (replicates)” value (CDK2 mRNA) of the same molecule?
A: 366.88 and 370.84 and 369.84

Q: What about the “CDK3 average normalised counts” value (CDK3 mRNA) of the same molecule?
A: 56.79

Q: What about the “CDK3 normalised counts (replicates)” value (CDK3 mRNA) of the same molecule?
A: 49.65 and 58.1 and 62.62

Q: What about the “CDK4 average normalised counts” value (CDK4 mRNA) of the same molecule?
A: 2610.07

Q: And the “CDK4 normalised counts (replicates)” value (CDK4 mRNA)?
A: 2590.21 and 2633.05 and 2606.96

Q: What about the “CDK5 average normalised counts” value (CDK5 mRNA) of the same molecule?
A: 1339.04

Q: And the “CDK5 normalised counts (replicates)” value (CDK5 mRNA)?
A: 1332.2 and 1264.78 and 1420.13

Q: What about the “CDK6 average normalised counts” value (CDK6 mRNA) of the same molecule?
A: 35.6167

Q: What about the “CDK6 normalised counts (replicates)” value (CDK6 mRNA) of the same molecule?
A: 34.2 and 34.64 and 38.01

Q: And the “CDK7 average normalised counts” value (CDK7 mRNA)?
A: 605.207

Q: What about the “CDK7 normalised counts (replicates)” value (CDK7 mRNA) of the same molecule?
A: 585.94 and 619.3 and 610.38

Q: And the “CDK8 average normalised counts” value (CDK8 mRNA)?
A: 908.99

Q: What about the “CDK8 normalised counts (replicates)” value (CDK8 mRNA) of the same molecule?
A: 898.63 and 942.48 and 885.86

Q: And the “CDK9 average normalised counts” value (CDK9 mRNA)?
A: 879.65

Q: And the “CDK9 normalised counts (replicates)” value (CDK9 mRNA)?
A: 853.18 and 899.91 and 885.86

Q: And the “CDK10 average normalised counts” value (CDK10 mRNA)?
A: 437.29

Q: And the “CDK10 normalised counts (replicates)” value (CDK10 mRNA)?
A: 440.51 and 431.66 and 439.7

Q: What about the “CDK11A average normalised counts” value (CDK11A mRNA) of the same molecule?
A: 420.55

Q: And the “CDK11A normalised counts (replicates)” value (CDK11A mRNA)?
A: 435.96 and 389.96 and 435.73

Q: What about the “CDK12 average normalised counts” value (CDK12 mRNA) of the same molecule?
A: 928.887

Q: And the “CDK12 normalised counts (replicates)” value (CDK12 mRNA)?
A: 909.53 and 946.82 and 930.31

Q: And the “CDK13 average normalised counts” value (CDK13 mRNA)?
A: 1530.42

Q: And the “CDK13 normalised counts (replicates)” value (CDK13 mRNA)?
A: 1564.9 and 1505.42 and 1520.95

Q: What about the “CDK14 average normalised counts” value (CDK14 mRNA) of the same molecule?
A: 158.347

Q: And the “CDK14 normalised counts (replicates)” value (CDK14 mRNA)?
A: 151.46 and 173.64 and 149.94

Q: And the “CDK15 average normalised counts” value (CDK15 mRNA)?
A: 1

Q: What about the “CDK15 normalised counts (replicates)” value (CDK15 mRNA) of the same molecule?
A: 1

Q: And the “CDK16 average normalised counts” value (CDK16 mRNA)?
A: 3907.09

Q: What about the “CDK16 normalised counts (replicates)” value (CDK16 mRNA) of the same molecule?
A: 3890.94 and 3866.66 and 3963.68

Q: What about the “CDK17 average normalised counts” value (CDK17 mRNA) of the same molecule?
A: 1410.09

Q: And the “CDK17 normalised counts (replicates)” value (CDK17 mRNA)?
A: 1395.83 and 1406.38 and 1428.07

Q: What about the “CDK18 average normalised counts” value (CDK18 mRNA) of the same molecule?
A: 99.86
